Measured values: US20220133835A1, “ANTIDIABETIC COMPOSITION COMPRISING GINGER EXTRACT OBTAINED FROM MICROWAVE-PROCESSED GINGER AND METHOD OF PREVENTING OR TREATING DIABETIS MELLITUS” (priority 2020, published 2022)
Entries after “also recorded” stand apart in the source; their conditions may differ.

Assays:
INS-1 cells [1] = experiment: INS-1 cell toxicity (CCK-8 cell viability); conditions: for Cell viability (%): 24 hours, INS-1 cells, CCK-8; for toxicity against INS-1 cells: summary of Tables 1 and 2, up to 5 μg/mL or 5 μM
Procedure: Cell line INS-1 (Biohermes, Shanghai, China) is a […] insulinoma species and has insulin secretion ability. INS-1 cells were cultured in RPMI1640 (Cellgro, Manassas, Va., USA) medium supplemented with 10% fetal bovine serum (FBS), 100 units/mL penicillin G, 100 μg/mL streptomycin, 10 mM HEPES, 2 mM L-glutamine, 1 mM sodium pyruvate and 0.05 mM 2-mercapto ethanol under a condition of a temperature of 37° C., 90% air, and 10% CO2. Among the above-mentioned components, reagents not mentioned by the manufacturer were purchased from Gibco BRL, Life Technologies. The cultured INS-1 cells were inoculated in each well of a 96-well plate in the number of 1×10^4 in a medium of 100 μL and cultured for 24 hours to stabilize the cells. Next, the ginger extract, fraction thereof, and single compounds were added to a specific concentration, followed by culturing for 24 hours. Next, 10 μL of a CCK-8 reagent (Dojindo Laboratories, Japan) was added to each well, followed by culturing at a temperature of 37° C. After 1 hour, cell viability was measured by measuring absorbance at a wavelength of 450 nm on a BIO-TEK (Winooski, Vt., USA) microplate reader. The specific concentrations of the ginger extract and a fraction thereof were set to 1 μg/m L, 2.5 μg/mL, and 5 μg/mL, and the specific concentrations of the single compound were set to 1 μM, 2.5 μM, and 5 μM. Cell viability in Tables 1 and 2 was calculated as follows. Cell viability (%)=A/B×100 A: absorbance of sample to which a reagent is […]

INS-1 cells [2] = experiment: Glucose stimulated insulin secretion (GSIS) of INS-1 cell; type: cell-based, rat; conditions: for Stimulation index (SI): insulin secreted at 16.7 mM glucose divided by that at 3.3 mM glucose; for insulin secretion of INS-1 cells: summary in words of Tables 3 and 4
Procedure: Cell line INS-1 (Biohermes, Shanghai, China) is a […] insulinoma species and has insulin secretion ability. INS-1 cells were cultured in RPMI1640 (Cellgro, Manassas, Va., USA) medium supplemented with 10% fetal bovine serum (FBS), 100 units/mL penicillin G, 100 μg/mL streptomycin, 10 mM HEPES, 2 mM L-glutamine, 1 mM sodium pyruvate and 0.05 mM 2-mercapto ethanol under a condition of a temperature of 37° C., 90% air, and 10% CO2. Among the above-mentioned components, reagents not mentioned by the manufacturer were purchased from Gibco BRL, Life Technologies. 5×10^5 cultured INS-1 cells were inoculated in each well of the 12-well plate in the same medium of 2 mL and cultured for 24 hours under the same condition as described in Section (1) INS-1 cell culture to stabilize the cells. Then, 114 mM sodium chloride (NaCl), 4.4 mM potassium chloride (KCl), 1 mM magnesium sulfate (MgSO4), 1.28 mM calcium chloride (CaCl2)), 29.5 mM sodium hydrogen carbonate (NaHCO3), 10 mM HEPES; Gibco BRL Life Technologies), and 0.1% bovine serum albumin (BSA) were mixed, and the cells were washed twice with 2 mL of Krebs-Ringer buffer with a hydrogen ion concentration of pH 7.4. Thereafter, 2 mL of Krebs-Ringer buffer was added to the washed cells and incubated for 1 hour. Then, the ginger extract, each fraction, and each compound were incubated for 30 minutes in 1.8 mL of Krebs-Ringer buffer at a specific concentration. The specific concentrations of the ginger extract and a fraction thereof were set to 1 μg/m L, 2.5 μg/mL, and 5 μg/mL, and the specific concentrations of the single compound were set to 1 μM, 2.5 μM, and 5 μM. 0.2 mL of Krebs-Ringer buffers containing 33 mM and 167 mM glucose were each added to the wells and incubated for 1 hour. Thereafter, after centrifugation at 12,000 revolutions per minute (rpm) for 10 minutes at a temperature of 4° C., the supernatant was taken, and the amount of insulin was measured with a Rat insulin RIA kit (Gentaur Molecular Products, Belgium). The stimulation index (SI) is a value obtained by dividing a value measured at a high glucose concentration, that is, the amount of insulin secreted by stimulation of a 16.7 mM glucose concentration by a value measured at a low glucose concentration, that is, the amount of insulin secreted by stimulation of a 3.3 mM glucose concentration. As a positive control, gliclazide was used at concentrations of 2.5 μM, 5.0 μM, 10 μM, and 20 μM.

ICR mice = experiment: Oral glucose tolerance test (OGTT); type: in vivo, mouse; conditions: 100 mg/kg oral 1 hour before glucose 2 g/Kg, caudal vein blood at 0-120 minutes, vs control and unprocessed/6-gingerol group
Procedure: ICR mice were used for OGTT experiments. ICR mice were fasted for 12 hours before the experiment, blood was collected from the caudal vein of mice that had been fasted for 12 hours, and the fasting blood glucose level was measured as the initial blood glucose level. Thereafter, experiments were conducted with a group administered with glucose (2 g/Kg) (control), a group administered with glucose and a raw ginger extract (100 mg/kg, not processed), and a group administered with a microwave-processed ginger product (100 mg/kg, processed). After oral administration for each concentration, glucose was orally administered 1 hour later, and measurement was performed by using a blood glucose meter from the caudal vein at 0, 15, 30, 60, and 120 minutes. FIG. 3 is a graph of results of an oral glucose tolerance test of a ginger extract and a microwave-processed ginger product.
Next, to test the efficacy of a single component of ginger, blood was collected from the caudal vein of mice that had been fasted for 12 hours, and the fasting blood glucose level was measured as the initial blood glucose level. Thereafter, experiments were conducted with a group administered with glucose (2 g/Kg) (control), a group administered with glucose and 6-gingerol (100 mg/kg), and a group administered with glucose and 6-shogaol (100 mg/kg). […]

[3] = through induction of cell defense mechanisms; cited from earlier work

Compound | Cell viability (%) (INS-1 cells [1]; 1 μM) | Cell viability (%) (INS-1 cells [1]; 2.5 μM) | Cell viability (%) (INS-1 cells [1]; 5 μM) | Stimulation index (SI) (INS-1 cells [2]; 1 μM) | Stimulation index (SI) (INS-1 cells [2]; 2.5 μM) | Stimulation index (SI) (INS-1 cells [2]; 5 μM) | toxicity against INS-1 cells (INS-1 cells [1]) | insulin secretion of INS-1 cells (INS-1 cells [2]) | increase in blood glucose level (ICR mice) | anticancer activity compared with [6]-gingerol [3]
Cc1ccc(S(=O)(=O)NC(=O)NN2CC3CCCC3C2)cc1 (stereo not shown) [Glyclazide, gliclazide, reference compound] | 99.7 ± 0.2% | 96.3 ± 0.9% | 91.1 ± 1.4% | 1.3 ± 0.0 | 1.9 ± 0.1 | 3.0 ± 0.1 |  |  |  | 
CCCCC[C@H](O)CC(=O)CCc1ccc(O)c(OC)c1 [[6]-gingerol] | 98.1 ± 2.7% | 98.7 ± 2.3% | 98.2 ± 3.5% | 2.4 ± 0.0 | 2.2 ± 0.1 | 2.3 ± 0.1 | not to exhibit toxicity | secreted insulin concentration-dependently |  | 
CCCCC/C=C/C(=O)CCc1ccc(O)c(OC)c1 [[6]-shogaol] | 101.1 ± 0.4% | 101.8 ± 0.7% | 101.2 ± 0.2% | 3.0 ± .0 | 3.5 ± 0.1 | 4.8 ± 0.0 | not to exhibit toxicity | secreted insulin concentration-dependently; also recorded: promote insulin secretion in INS-1 cells, as compared with other components | significantly reduced | 
CCCCCCC[C@H](O)CC(=O)CCc1ccc(O)c(OC)c1 [[8]-gingerol] |  |  |  | 1.1 ± 0.0 | 1.5 ± 0.0 | 2.1 ± 0.0 |  | secreted insulin concentration-dependently |  | 
CCCCCCC/C=C/C(=O)CCc1ccc(O)c(OC)c1 [[8]-shogaol] | 94.0 ± 2.6% | 96.3 ± 1.9% | 92.4 ± 1.7% | 1.3 ± 0.1 | 1.5 ± 0.1 | 1.8 ± 0.1 | not to exhibit toxicity | secreted insulin concentration-dependently |  | 
CCCCCCCCC[C@H](O)CC(=O)CCc1ccc(O)c(OC)c1 [[10]-gingerol] | 99.3 ± 1.6% | 100.6 ± 3.3% | 100.7 ± 3.5% | 1.7 ± 0.2 | 1.7 ± 0.1 | 1.5 ± 0.1 | not to exhibit toxicity | secreted insulin concentration-dependently |  | 
CCCCCCCCC/C=C/C(=O)CCc1ccc(O)c(OC)c1 [[10]-shogaol] | 101.9 ± 2.2% | 99.8 ± 3.9% | 99.6 ± 3.3% | 1.9 ± 0.0 | 1.4 ± 0.0 | 1.4 ± 0.1 | not to exhibit toxicity | secreted insulin concentration-dependently |  | 
shogaol |  |  |  |  |  |  |  |  |  | more than 10 times
